Measurements: US6277847A, “Herbicidal isoindolinonyl-and 3,4-dihydroisoquinolonyl-substituted heterocycles” (FMC Corporation, priority 2000, dated 2001)

Tests used:
Assay type in all cases: in vivo
[1] = system: wheat (Triticum aestivum var. Lew); assay: pre-emergence herbicidal activity, wheat; conditions: 1 kg/Ha, about fourteen days, read-out: pre-emergence herbicidal activity (% control) WHT
Method in brief: (§1)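 Seeds sown in flats of soil mix were sprayed pre-emergence with test compound in water/acetone at 1 kg/Ha. Flats were held about fourteen days beside untreated controls, then phytotoxicity was scored as percent control (0 = no effect, 100 = complete control).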

[2] = system: morningglory (Ipomea lacunosa or Ipomea hederacea); assay: post-emergence herbicidal activity, morningglory; conditions: Ipomoea, 1 Kg/Ha, about fourteen days, read-out: post-emergence herbicidal activity (% control) IPOSS
Method in brief: (§2)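 Seedlings were grown in soil flats to a suitable stage, then sprayed with test compound in water/acetone at 1 Kg/Ha. Treated plants were kept alongside untreated controls for about fourteen days and then scored for phytotoxicity as percent control, 0 being no effect and 100 complete control.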

[3] = system: wheat (Triticum aestivum var. Lew); assay: post-emergence herbicidal activity, wheat; conditions: 1 Kg/Ha, about fourteen days, read-out: post-emergence herbicidal activity (% control) WHT
Method in brief: as §2

[4] = system: field corn (Zea mays var. Pioneer 3732); assay: pre-emergence herbicidal activity, corn; conditions: 1 kg/Ha, about fourteen days, read-out: pre-emergence herbicidal activity (% control) CRN
Method in brief: as §1

[5] = system: soybean (Glycine max -- var. Winchester); assay: pre-emergence herbicidal activity, soybean; conditions: 1 kg/Ha, about fourteen days, read-out: pre-emergence herbicidal activity (% control) SOY
Method in brief: as §1

[6] = system: blackgrass (Aloepecurus myosuroides); assay: post-emergence herbicidal activity, blackgrass; conditions: Alopecurus myosuroides, 1 Kg/Ha, about fourteen days, read-out: post-emergence herbicidal activity (% control) ALOMY
Method in brief: as §2

[7] = system: velvetleaf (Abutilon theophrasti); assay: post-emergence herbicidal activity, velvetleaf; conditions: 1 Kg/Ha, about fourteen days, read-out: post-emergence herbicidal activity (% control) ABUTH
Method in brief: as §2

[8] = system: green foxtail (Setaria viridis); assay: post-emergence herbicidal activity, green foxtail; conditions: 1 Kg/Ha, about fourteen days, read-out: post-emergence herbicidal activity (% control) SETVI
Method in brief: as §2

[9] = system: velvetleaf (Abutilon theophrasti); assay: pre-emergence herbicidal activity, velvetleaf; conditions: 1 kg/Ha, about fourteen days, read-out: pre-emergence herbicidal activity (% control) ABUTH
Method in brief: as §1

[10] = system: green foxtail (Setaria viridis); assay: pre-emergence herbicidal activity, green foxtail; conditions: 1 kg/Ha, about fourteen days, read-out: pre-emergence herbicidal activity (% control) SETVI
Method in brief: as §1

[11] = system: morningglory (Ipomea lacunosa or Ipomea hederacea); assay: pre-emergence herbicidal activity, morningglory; conditions: Ipomoea, 1 kg/Ha, about fourteen days, read-out: pre-emergence herbicidal activity (% control) IPOSS
Method in brief: as §1

[12] = system: field corn (Zea mays var. Pioneer 3732); assay: post-emergence herbicidal activity, corn; conditions: 1 Kg/Ha, about fourteen days, read-out: post-emergence herbicidal activity (% control) CRN
Method in brief: as §2

[13] = system: common chickweed (Stellaria media); assay: post-emergence herbicidal activity, chickweed; conditions: 1 Kg/Ha, about fourteen days, read-out: post-emergence herbicidal activity (% control) STEME
Method in brief: as §2

[14] = system: soybean (Glycine max -- var. Winchester); assay: post-emergence herbicidal activity, soybean; conditions: 1 Kg/Ha, about fourteen days, read-out: post-emergence herbicidal activity (% control) SOY
Method in brief: as §2

[15] = system: common cocklebur (Xanthium strumarium L.); assay: pre-emergence herbicidal activity, cocklebur; conditions: 1 kg/Ha, about fourteen days, read-out: pre-emergence herbicidal activity (% control) XANPE
Method in brief: as §1

[16] = system: blackgrass (Aloepecurus myosuroides); assay: pre-emergence herbicidal activity, blackgrass; conditions: Alopecurus myosuroides, 1 kg/Ha, about fourteen days, read-out: pre-emergence herbicidal activity (% control) ALOMY
Method in brief: as §1

[17] = system: common cocklebur (Xanthium strumarium L.); assay: post-emergence herbicidal activity, cocklebur; conditions: 1 Kg/Ha, about fourteen days, read-out: post-emergence herbicidal activity (% control) XANPE
Method in brief: as §2

[18] = system: common chickweed (Stellaria media); assay: pre-emergence herbicidal activity, chickweed; conditions: 1 kg/Ha, about fourteen days, read-out: pre-emergence herbicidal activity (% control) STEME
Method in brief: as §1

[19] = system: Johnsongrass (Sorghum halepense); assay: post-emergence herbicidal activity, johnsongrass; conditions: 1 Kg/Ha, about fourteen days, read-out: post-emergence herbicidal activity (% control) SORHA
Method in brief: as §2

[20] = system: Johnsongrass (Sorghum halepense); assay: pre-emergence herbicidal activity, johnsongrass; conditions: 1 kg/Ha, about fourteen days, read-out: pre-emergence herbicidal activity (% control) SORHA
Method in brief: as §1

Structure (SMILES): Cn1c(C(F)(F)F)cc(=O)n(-c2c(Cl)cc(Cl)c3c2CN(C(C)(C)C)C3=O)c1=O [Compound 6]
- activity at 1000 g/ha [1]: 100%
- activity at 1000 g/ha [2]: 95%
- activity at 1000 g/ha [3]: 80%
- activity at 1000 g/ha [4]: 100%
- activity at 1000 g/ha [5]: 100%
- activity at 1000 g/ha [6]: 100%
- activity at 1000 g/ha [7]: 100%
- activity at 1000 g/ha [8]: 100%
- activity at 1000 g/ha [9]: 100%
- activity at 1000 g/ha [10]: 100%
- activity at 1000 g/ha [11]: 100%
- activity at 1000 g/ha [12]: 100%
- activity at 1000 g/ha [13]: 100%
- activity at 1000 g/ha [14]: 90%
- activity at 1000 g/ha [15]: 100%
- activity at 1000 g/ha [16]: 100%
- activity at 1000 g/ha [17]: 100%
- activity at 1000 g/ha [18]: 100%
- activity at 1000 g/ha [19]: 100%
- activity at 1000 g/ha [20]: 100%
